From ChEMBL document CHEMBL4680366, “Tumor-Targeted Bivalent Protein Degradation for Application in Cancer Therapy” (ACS Med Chem Lett, 2021)
Activity calls are given as the source filed them. No cut-off for these calls is given here.

Legend:
[1] = biological target: Bromodomain-containing protein 4 (Homo sapiens, UniProt O60885); experiment: Binding affinity to recombinant human BRD4 BD1 and BD2 expressed in Escherichia coli BL21 incubated for 2 hrs under shaking condition by HTRF assay
[2] = biological target: Heat shock protein HSP 90-alpha/Bromodomain-containing protein 4 (Homo sapiens) (UniProt P07900+O60885); experiment: Protac activity at HSP90/BRD4 in human MV4-11 cells assessed as degradation of BRD4 at 40 to 1000 nM measured after 24 hrs by flow cytometry relative to control; format: cell-based; settings: dose 40-1000 nM
MV4-11 = experiment: Antitumor activity at human MV4-11 cells xenografted in BALB/c mouse assessed as tumor growth inhibition at 25 to 100 mg/kg, ip administered for 3 to 4 weeks; format: functional, organism-based; settings: dose 25-100 mg/kg, time 3-4 weeks

SMILES | IC50 [1] | Activity [2] | TGI (MV4-11)
Cc1sc2c(c1C)C(c1ccc(Cl)cc1)=N[C@@H](CC(=O)N1CCC(CN3CCN(Cc4ccc(-n5c(O)nnc5-c5ccc(O)cc5O)cc4)CC3)CC1)c1nnc(C)n1-2 | < 100 nM |  | 
Cc1sc2c(c1C)C(c1ccc(Cl)cc1)=N[C@@H](CC(=O)N1CCC(CCN3CCC(Cc4ccc(-n5c(O)nnc5-c5cc(C(C)C)c(O)cc5O)cc4)CC3)CC1)c1nnc(C)n1-2 | < 100 nM |  | 
Cc1sc2c(c1C)C(c1ccc(Cl)cc1)=N[C@@H](CC(=O)NCC(=O)NCC1CCN(C(=O)C3CCN(Cc4ccc(-n5c(O)nnc5-c5cc(C(C)C)c(O)cc5O)cc4)CC3)CC1)c1nnc(C)n1-2 | < 100 nM | > 50% | 
Cc1sc2c(c1C)C(c1ccc(Cl)cc1)=N[C@@H](CC(=O)N1CCC(CN3CCN(Cc4ccc(-n5c(O)nnc5-c5cc(C(C)C)c(O)cc5O)cc4)CC3)CC1)c1nnc(C)n1-2 [listing 1 of 3 here] | 100 nM |  | 
CCc1cc(-c2nnc(O)n2-c2ccc(CN3CCC(C(=O)N4CCC(CNC(=O)C[C@@H]5N=C(c6ccc(Cl)cc6)c6c(sc(C)c6C)-n6c(C)nnc65)C4)CC3)cc2)c(O)cc1O (stereo not given in full) | < 100 nM |  | 
Cc1sc2c(c1C)C(c1ccc(Cl)cc1)=N[C@@H](CC(=O)N1CCC(CN3CCN(Cc4ccc(-n5c(O)nnc5-c5cc(C(C)C)c(O)cc5O)cc4)CC3)CC1)c1nnc(C)n1-2 [listing 2 of 3 here] |  | > 50% | Active
Cc1sc2c(c1C)C(c1ccc(Cl)cc1)=N[C@@H](CC(=O)NCCOCCN1CCC(Cc3ccc(-n4c(O)nnc4-c4cc(C(C)C)c(O)cc4O)cc3)CC1)c1nnc(C)n1-2 | < 100 nM |  | 
Cc1sc2c(c1C)C(c1ccc(Cl)cc1)=N[C@@H](CC(=O)N[C@@H](C)c1ccc(CN3CCC(Cc4ccc(-n5c(O)nnc5-c5cc(C(C)C)c(O)cc5O)cc4)CC3)cc1)c1nnc(C)n1-2 | < 100 nM |  | 
Cc1sc2c(c1C)C(c1ccc(Cl)cc1)=N[C@@H](CC(=O)N1CCC(CN3CCN(Cc4ccc(-n5c(O)nnc5-c5cc(C(C)C)c(O)cc5O)cc4)CC3)CC1)c1nnc(C)n1-2 [listing 3 of 3 here] | 100 nM |  | 
CCc1cc(-c2nnc(C(=O)NCC(F)(F)F)n2-c2ccc(CN3CCN(CC4CCN(C(=O)C[C@@H]5N=C(c6ccc(Cl)cc6)c6c(sc(C)c6C)-n6c(C)nnc65)CC4)CC3)cc2)c(O)cc1O | 100 nM |  | Active
CCc1cc(-c2nnc(O)n2-c2ccc(CN3CCN(CC4CCN(C(=O)C[C@@H]5N=C(c6ccc(Cl)cc6)c6c(sc(C)c6C)-n6c(C)nnc65)CC4)CC3)cc2)c(O)cc1O | 100 nM | > 50% | 
